“Also recorded” adds a separate entry of the source. Where two headings read alike, the source gives them in different places. Marks after values point to notes of the source that are not given here. Where a SMILES comes first, the peptide text is derived from it.
Legend:
Swiss albino mice [1] = assay: Rotarod test; format: in vivo
Method: Swiss albino mice (∼20-30 g) were first trained on the rotarod, which accelerated from 0-20 rpm over 5 min, prior to the experiment. Only mice that were capable of staying on the rotarod for the entire 5 min period were used in this experiment. Mice were either administered with the peptide (1 or 10 mg/kg, sublingual), or morphine (20 mg/kg, subcutaneous). After drug administration, the animals are placed on the rotarod and the time taken for the mice to slip was recorded (up to 5 min), and subsequently at 1h, 2h and 3h post peptide, and at 30 min, 1h30 min and 2h30 min post morphine. Statistical comparison was done by either Student's t-test or one-way ANOVA.

Swiss albino mice [2] = assay: Spontaneous locomotor activity; format: in vivo
Method: Swiss albino mice (∼30 - 40 g) were first placed into their respective chambers with a 20 min pre-treatment recording. Only mice showing at least 50 counts / 5 min are used in the experiments. Mice were administered saline (control), peptide (5 or 50 mg/kg) or morphine (50 mg/kg). Experimenters were blind to the identity of the drug solutions. After drug administration, the animals were placed into their individual chambers and their spontaneous locomotor activity was recorded by video tracking and the data were recorded for a period of 4 h. Statistical comparison was done by 2-way ANOVA.

Swiss albino mice [3] = assay: Acetic acid-induced writhing model; format: in vivo; conditions: 1 mg/kg, intraperitoneal
Method: Swiss albino mice (20-25 g, male) were administered with the peptide and at the appropriate post- dose time acetic acid (0.9% solution) was injected intraperitoneally (10 ml/kg). The mice were then placed in a transparent observer box and the total number of writhes per animal in the 15 min period after injection of acetic acid was recorded. A writhe is typically characterized by contractions of the abdominal musculature followed by extension of the hind limbs. Statistical comparison was done by either Student's t-test or one-way ANOVA.
At 1 h post administration time, acetic acid (0.9% solution) was injected intraperitoneally and the total number of writhes per animal was recorded, as described above. Upon completion of the experiment the animals were sacrificed and skull exposed. The accuracy of the injection was confirmed via injection of methyl-blue dye into the injection aperture left by the original injection. Only results from mice showing coloration of the ventricles are accepted.

Swiss albino mice [4] = assay: Hot plate model; format: in vivo; conditions: intraperitoneal administration, 30 min post-dose, positive control
Swiss albino mice [5] = assay: GI motility (charcoal transit distance); format: in vivo; conditions: 30 min post-drug
Method: Swiss albino mice (30-35 g) were injected with saline, the peptide (5 mg/kg, 50 mg/kg intraperitoneal) or morphine (0.5 mg/kg, 5 mg/kg, 50 mg/kg intraperitoneal). The experimenters are blind to the identity of the solutions. All mice were administered 5 mg charcoal (0.1 ml of 50 mg/ml charcoal solution) via oral gavage immediately after drug administration. At 30 min post- drug / charcoal administration, the mice were sacrificed by cervical dislocation and the GI tract was exposed and the location of the charcoal identified. The distance the charcoal traveled in the intestine from the stomach was measured and expressed as % of total length of the GI tract.

rats [6] = assay: Open-field test (anxiety score); format: in vivo
Excerpt: The open field test is generally used to assess anxiety level of rodents due to their natural aversion of open space and thus their preference to stay near the side rather than venturing to the more open central part of the open field.
The open field was divided into 16 equal size squares (25 x 25 cm). The 4 squares at the centre are assigned a low anxiety score (0) while those at the 4 corners are assigned a high anxiety score (2). The remaining 8 squares are assigned a medium score (1). A rat entering each square will be given the score assigned to that square. The sum total obtained within the 5-min test period divided by the number of squares entered is the anxiety score for that rat. Diazepam was used as positive control. Statistical comparison was done by Student's t-test.

rats [7] = assay: Elevated-plus maze test; format: in vivo
Excerpt: The Elevated-Plus Maze Test is generally used to assess anxiety level of rodents due to their natural aversion for height. Two opposite arms of the elevated-plus maze are enclosed by high walls (closed arms) while the other two are not (open arms). The test animals (rats) naturally prefer and spend more time in the closed arms.

[8] = cited from earlier work
mice = assay: Acute high dose toxicity (oral and intravenous); format: in vivo
Method: Acute toxicity was determined by both oral and intravenous administration of the peptide. Three mice were given a dose of peptide at 2 g/kg orally by gavage, 5 ml/kg.

Swiss albino mice [9] = assay: Toxicity, single dose regimen, 14 days observation; format: in vivo; conditions: for Appearance / Body Weight Day 1 / Body Weight Day 14 / Death: intraperitoneal, single dose
Method: Swiss albino mice were administered with the peptide at 8 mg/kg or 80 mg/kg (intraperitoneal) on day 1 and then observed for 14 days. Control mice received saline.
At the end of the period, all mice were sacrificed, dissected and observed for any obvious abnormality. Weights of the major organs, including brain, heart, lung, liver, spleen and kidney, were recorded.

[10] = Pharmacokinetics: plasma concentration and bioavailability by route (LC/MS/MS); format: in vivo, mice; conditions: for bioavailability: AUC compared to intravenous route
Method: The peptide (1, 5, 15 and 25 mg/kg, 0.5 ml/kg) was administered sublingually to mice. Upon reaching specified time points of 1, 5, 15, 30, 60 and 120 min post-dose, each mouse was sacrificed and blood samples were collected via cardiac puncture. Plasma samples were then extracted and analyzed under LC/MS/MS. Systemic exposure of the peptide was also studied through intravenous, oral (gavage) and intraperitoneal routes.

Sprague-Dawley rats = assay: Acute effect on blood pressure, heart rate and respiration rate in anesthetized rats; format: in vivo; conditions: 5 and 20 mg/kg
Method: Sprague-Dawley rats (∼300 g) were anesthetized and the carotid artery was cannulated for blood pressure measurement. Drugs were administered by the pre-determined route. A pulse transducer was secured across the thoracic region of the rat to allow measurement of respiration rate. Blood pressure was recorded for at least 15 min or until a relatively stable blood pressure was observed.

Swiss albino mice [11] = assay: Toxicity, multiple dose regimen, once daily for 14 days; format: in vivo; conditions: for Appearance / Body Weight Day 1 / Body Weight Day 14 / Death: Intraperitoneal, daily
Method: Swiss albino mice were administered with the peptide at 8 mg/kg or 80 mg/kg (intraperitoneal) once daily for 14 days. Control mice received saline. At the end of the period, all mice were killed, dissected and observed for any obvious abnormality. Weights of the major organs, including brain, heart, lung, liver, spleen and kidney, were recorded.

[12] = sublingual route (oxytocin in physiological saline solution)
[13] = 125 mg/kg, intravenous, only the 5 mice that survived

CN1CC[C@]23c4c5ccc(O)c4O[C@H]2[C@@H](O)C=C[C@H]3[C@H]1C5 [Morphine, morphine]
rotarod performance (time to slip) (Swiss albino mice [1]; 20 mg/kg, subcutaneous, 30 min, 1h30 min and 2h30 min post dose): No statistical significant effects
rotarod performance (time to slip) (Swiss albino mice [1]; 20 mg/kg, subcutaneous, 30 min post drug administration, p=0.056): near significant decrease in performance
locomotive activities (Swiss albino mice [2]; 50 mg/kg, intraperitoneal, between 60 min and 220 min post drug administration): significant increase in locomotive activities
Time to first writhe (Swiss albino mice [3]): 190.75* % saline control
Total writhes in 15 min (Swiss albino mice [3]): 38.18* % saline control
Writhes in first 5 min (Swiss albino mice [3]): 12.5* % saline control
Writhes in subsequent 10 min (Swiss albino mice [3]): 48.56* % saline control
ED50 (Swiss albino mice [4]; Mus musculus, ip, 0.5 h): 0.82 mg/kg
Emax (Swiss albino mice [4]): 250 % of pre-dose latency
GI transit distance (Swiss albino mice [5]; 0.5 to 50 mg/kg intraperitoneal): dose-dependently decreased GI motility; also recorded: dose dependent inhibitory effect

CN1C(=O)CN=C(c2ccccc2)c2cc(Cl)ccc21 [diazepam]
anxiety score (rats [6]; positive control): decreased the anxiety score significantly
times spent in open and closed arms (rats [7]; compared to DMSO-controls): reversed the times spent in open and closed arms

desmopressin
bioavailability [8, 12]: about 0.25%

oxytocin
bioavailability ([8]; formulation with 0.75% w/w sodium taurocholate (tablet form)): 27%
bioavailability [8, 12]: 0.007-0.07%
bioavailability ([8]; sublingual route (oxytocin in physiological saline solution), listed as Oxytocin): 0.007 - 0.07%

C[C@@H](O)[C@H](NC(=O)[C@@H]1CCCN1C(=O)[C@H](Cc1ccccc1)NC(=O)[C@@H]1CCCN1C(=O)[C@@H](N)CC(N)=O)C(=O)N[C@@H](Cc1c[nH]c2ccccc12)C(=O)N[C@@H](CCCNC(=N)N)C(=O)N[C@@H](CCCCN)C(=O)N[C@@H](CCCNC(=N)N)C(=O)N1CCC[C@H]1C(=O)NCC(=O)O [the peptide, NPFPTWRKRPG] (H-NPFPTWRKRPG-OH)
rotarod performance (time to slip) (Swiss albino mice [1]; 1 or 10 mg/kg, sublingual, 1h, 2h and 3h post dose): No statistical significant effects
locomotive activities (Swiss albino mice [2]; 5 or 50 mg/kg, within 4 h of drug administration, compared to control): no significant difference
Body Weight (g, 2 weeks postdose) (mice; 62.5 mg/kg, intravenous): 34.7 ± 1.5 g
Body Weight (g, predose) (mice; 62.5 mg/kg, intravenous): 30.0 ± 1.0 g
behaviour after administration (mice; 62.5 mg/kg, intravenous): appeared sedated after peptide but recovered after several hours
mice that died (mice; 125 mg/kg intravenous): four out of nine
time to death (mice; 125 mg/kg intravenous): 5 to 10 min
behaviour of surviving mice (mice; 125 mg/kg intravenous, five surviving mice): appeared heavily sedated for several hours
Body Weight (g, 2 weeks postdose) (mice; [13]): 33.6 ± 1.5 g
Body Weight (g, predose) (mice; [13]): 28.6 ± 1.3 g
behaviour after administration (mice; 2 g/kg oral by gavage): appeared sedated with much decreased activity
time to recovery from sedation (mice; 2 g/kg oral, listed as peptide): about 1 h
Body Weight (g, 2 weeks postdose) (mice; 2g/kg, oral): 33.0 ± 1.7 g
Body Weight (g, predose) (mice; 2g/kg, oral): 29.3 ± 1.5 g
time to recovery from sedation (mice; 2g/kg, oral): ≤ 1 h
LD50 (mice; administered intravenously, mice): about 125 mg/kg
anxiety scores (rats [6]; intraperitoneally, 1 or 50 mg/kg, compared to saline control): did not show any effect on the anxiety scores
Appearance (Swiss albino mice [9]; 8 mg/kg): normal
Body Weight Day 1 (Swiss albino mice [9]; 8 mg/kg): 26.2 ± 0.4 g
Body Weight Day 14 (Swiss albino mice [9]; 8 mg/kg): 31.7 ± 0.5 g
Death (Swiss albino mice [9]; 8 mg/kg): nil
Appearance (Swiss albino mice [9]; 80 mg/kg): normal
Body Weight Day 1 (Swiss albino mice [9]; 80 mg/kg): 25.8 ± 0.6 g
Body Weight Day 14 (Swiss albino mice [9]; 80 mg/kg): 31.1 ± 0.7 g
Death (Swiss albino mice [9]; 80 mg/kg): Nil
organ appearance and weights (Swiss albino mice [9]; single dose 8 or 80 mg/kg intraperitoneal, day 14): All organs appeared normal and no differences in weight were observed
obvious toxicity (Swiss albino mice [9]; single high dose up to 80 mg/kg): did not cause any obvious toxicity
plasma concentration ([10]; 1 hour after administration, other routes of administration): approximately undetectable
bioavailability ([10]; intraperitoneal route): 0.5%
level at 1 h ([10]; mouse, plasma, 25 mg/kg, 1 hour after administration, sublingual route): > 100 ng/mL
bioavailability ([10]; mouse, plasma, ip, intraperitoneal route, read-out: bioavailability): 0.5%
bioavailability ([10]; mouse, plasma, oral route, read-out: bioavailability): 4%
bioavailability ([10]; oral route): 4%
bioavailability ([10]; sublingual route): 44%
plasma concentration ([10]; sublingual, doses below 5 mg/kg, by 30 min after administration): negligible
blood pressure (Sprague-Dawley rats; intravenous route): dose dependent drop
blood pressure (Sprague-Dawley rats; intravenous route, listed as Peptide): decreased in blood pressure
blood pressure (Sprague-Dawley rats; sublingual or intraperitoneal routes): no change in blood pressure
blood pressure (Sprague-Dawley rats; sublingual or intraperitoneal routes, listed as peptide): did not cause any changes in blood pressure
time spent in the open or closed arms (rats [7]; 1 or 50 mg/kg, 30 min or 3 h post-dose, compared to saline): did not produce any significant changes
Appearance (Swiss albino mice [11]; 8 mg/kg): normal
Body Weight Day 1 (Swiss albino mice [11]; 8 mg/kg): 21.4 ± 0.8 g
Body Weight Day 14 (Swiss albino mice [11]; 8 mg/kg): 30.0 ± 0.4 g
Death (Swiss albino mice [11]; 8 mg/kg): nil
Death (Swiss albino mice [11]; 8 mg/kg, listed as peptide): death of one mouse
Appearance (Swiss albino mice [11]; 80 mg/kg): normal
Body Weight Day 1 (Swiss albino mice [11]; 80 mg/kg): 21.3 ± 0.5 g
Body Weight Day 14 (Swiss albino mice [11]; 80 mg/kg): 28.1 ± 1.2 g
Death (Swiss albino mice [11]; 80 mg/kg): Nil
organ appearance and weights (Swiss albino mice [11]; 8 or 80 mg/kg intraperitoneal once daily for 14 days): All organs appeared normal and no differences in weight were observed
obvious toxicity (Swiss albino mice [11]; multiple high doses up to 80 mg/kg for 14 days): did not cause any obvious toxicity
GI transit distance (Swiss albino mice [5]; 5 mg/kg and 50 mg/kg intraperitoneal): did not show any significant reduction
GI transit distance (Swiss albino mice [5]; 5 mg/kg and 50 mg/kg intraperitoneal, listed as The peptide): does not show any significant effect

Reference: patent EP2476410A1, “An analgesic peptide-containing composition for transbuccal administration” (priority 2011, dated 2012)
